Reference: patent publication US20250145633A1, “SUBSTITUTED FURANOPYRIMIDINE COMPOUNDS AS PDE1 INHIBITORS” (Dart NeuroScience, LLC, priority 2017, published 2025)

What follows are compounds tested against human PDE1B enzyme (Homo sapiens (Human), UniProt Q01064) (assay: IMAP TR-FRET PDE1B enzymatic assay). Conditions: negative log of half-maximal molar inhibitory concentration; 200 nM FAM-cAMP; values given as bins.
Format: biochemical
Description: PDE1B inhibition was determined by an IMAP TR-FRET assay. The IMAP TR-FRET PDE assay was optimized for concentration of enzyme, Calmodulin, cAMP or cGMP substrate, DMSO tolerance, and incubation time.
Into each well of a solid white 1536 well plate (Corning) was dispensed 250 pg full-length recombinant NH-terminal GST tagged human PDE1B enzyme (BPS Bioscience Cat #60011, San Diego, CA) in 2.5 μL IMAP BSA reaction buffer (Molecular Devices, Sunnyvale, CA) containing 10 U/ml Calmodulin and 2.5 mM CaCl2) (Sigma Aldrich.) After a brief centrifugation, 30 nL of compound was added by transfer from 1 mM stock in DMSO using a Kalypsys 1536 Pintool. Plates were incubated for 5 minutes at room temperature before dispensing 1.5 μL of 533 nM 5-carboxy fluorescein (FAM)-labeled cAMP (Molecular Devices, Sunnyvale, CA) for a final concentration of 200 nM. After a brief centrifugation, the plates were incubated for 30 minutes at room temperature. The assay was terminated by adding 5 μL IMAP binding reagent/Tb complex (Molecular Devices, Sunnyvale, CA) to each well.
Plates were incubated for 1 hour at room temperature and were read on a Viewlux multimode plate reader (Perkin Elmer). The instrument was set to excite using the DUG11 filter and measure using 490/10 nm and 520/10 nm filters. Ratios of acceptor and donor were then calculated.
For IC50 calculations, the values of % efficacy versus a series of compound concentrations were then plotted using non-linear regression analysis of sigmoidal dose-response curves generated with the equation Y=[B+(T−B)]/[1+10((Log EC50−X)×Hill Slope)], where Y=percent activity, B=minimum percent efficacy, T=maximum percent efficacy, X=logarithm of compound and Hill Slope=slope factor or Hill coefficient. The IC50 value was determined by the concentration causing a half-maximal percent efficacy.
With `Cc1oc2ncnc(NC3(C)CC3)c2c1C(=O)NC(C)c1ccc(F)cn1` (centres unmarked) [Example 51, N-[1-(5-Fluoropyridin-2-yl)ethyl]-6-methyl-4-[(1-methylcyclopropyl)amino]furo[2,3-d]pyrimidine-5-carboxamide] the “PDE1b (pIC50)” value was greater than 8. With `CCc1cc(CNC(=O)c2c(C)oc3ncnc(NC4(C)CC4)c23)no1` [Example 322, N-[(5-Ethyl-1,2-oxazol-3-yl)methyl]-6-methyl-4-[(1-methylcyclopropyl)amino]furo[2,3-d]pyrimidine-5-carboxamide] the “PDE1b (pIC50)” value was greater than 8.

Same assay, conditions: negative log of half-maximal molar inhibitory concentration; 200 nM FAM-cAMP; values given as bins; read-out: PDE1b (pIC50) (converted)
Compound `Cc1oc2ncnc(NC3(C)CC3)c2c1C(=O)NC1CCc2ccccc21` (centres unmarked) [Example 230, N-(2,3-Dihydro-1H-inden-1-yl)-6-methyl-4-[(1-methylcyclopropyl)amino]furo[2,3-d]pyrimidine-5-carboxamide] has an IC50 of 10 to 100 nM. For `Cc1oc2ncnc(NC3(C)CC3)c2c1C(=O)N1CCc2cnc(C(C)C)nc2C1` [Example 294, 6-Methyl-N-(1-methylcyclopropyl)-5-[2-(propan-2-yl)-5H,6H,7H,8H-pyrido[3,4-d]pyrimidine-7-carbonyl]furo[2,3-d]pyrimidin-4-amine], the IC50 was 10 to 100 nM. `Cc1oc2ncnc(NC3(C)CC3)c2c1C(=O)NCc1ccc(OC(F)(F)F)cc1F` [Example 723, N-{[2-Fluoro-4-(trifluoromethoxy)phenyl]methyl}-6-methyl-4-[(1-methylcyclopropyl)amino]furo[2,3-d]pyrimidine-5-carboxamide] gave an IC50 of 10 to 100 nM. Compound `Cc1oc2ncnc(NC3(C)CC3)c2c1C(=O)NCC1CCOCC1` [Example 139, 6-Methyl-4-[(1-methylcyclopropyl)amino]-N-(oxan-4-ylmethyl)furo[2,3-d]pyrimidine-5-carboxamide] has an IC50 of 10 to 100 nM. `COc1cc(F)ccc1CNC(=O)c1c(C)oc2ncnc(NC3(C)CC3)c12` [Example 525, N-[(4-Fluoro-2-methoxyphenyl)methyl]-6-methyl-4-[(1-methylcyclopropyl)amino]furo[2,3-d]pyrimidine-5-carboxamide] was tested, and the IC50 was 10 to 100 nM. Compound `COc1ccc(C2CN(C(=O)c3c(C)oc4ncnc(NC5(C)CC5)c34)CCO2)cc1` (centres unmarked) [Example 123, 5-[2-(4-Methoxyphenyl)morpholine-4-carbonyl]-6-methyl-N-(1-methylcyclopropyl)furo[2,3-d]pyrimidin-4-amine] has an IC50 of 100 to 1000 nM. In the case of `Cc1cncc(NC(=O)c2c(C)oc3ncnc(NC4(C)CC4)c23)n1` [Example 437, 6-Methyl-4-[(1-methylcyclopropyl)amino]-N-(6-methylpyrazin-2-yl)furo[2,3-d]pyrimidine-5-carboxamide], the IC50 is reported as 100 to 1000 nM. `Cc1oc2ncnc(NC3(C)CC3)c2c1C(=O)Nc1cnn(-c2ccccn2)c1` [Example 419, 6-Methyl-4-[(1-methylcyclopropyl)amino]-N-[1-(pyridin-2-yl)-1H-pyrazol-4-yl]furo[2,3-d]pyrimidine-5-carboxamide] was tested, and the IC50 was 10 to 100 nM. Work on `Cc1oc2ncnc(NC3(C)CC3)c2c1C(=O)NCc1cscn1` [Example 75, 6-Methyl-4-[(1-methylcyclopropyl)amino]-N-(1,3-thiazol-4-ylmethyl)furo[2,3-d]pyrimidine-5-carboxamide] yielded an IC50 of 10 to 100 nM. Work on `COc1cc(CNC(=O)c2c(C)oc3ncnc(NC4(C)CC4)c23)ccc1F` [Example 336, N-[(4-Fluoro-3-methoxyphenyl)methyl]-6-methyl-4-[(1-methylcyclopropyl)amino]furo[2,3-d]pyrimidine-5-carboxamide] yielded an IC50 of 10 to 100 nM. Work on `Cc1ccc(CCNC(=O)c2c(C)oc3ncnc(NC4(C)CC4)c23)cc1` [Example 235, 6-Methyl-4-[(1-methylcyclopropyl)amino]-N-[2-(4-methylphenyl)ethyl]furo[2,3-d]pyrimidine-5-carboxamide] yielded an IC50 of 10 to 100 nM. Work on `Cc1oc2ncnc(NC3(C)CC3)c2c1C(=O)N1CCc2c(ncnc2N2CCOCC2)C1` [Example 787, 6-Methyl-N-(1-methylcyclopropyl)-5-[4-(morpholin-4-yl)-5H,6H,7H,8H-pyrido[3,4-d]pyrimidine-7-carbonyl]furo[2,3-d]pyrimidin-4-amine] yielded an IC50 of 10 to 100 nM.
